Source: patent US12486253B2, “Therapeutics for the degradation of mutant BRAF” (C4 THERAPEUTICS, INC., priority 2021, dated 2025)
Read-outs that look alike come from different tables or passages of the source.

Biological target: BRAF V600E (Homo sapiens, UniProt P15056, V600E)
Assay: HiBiT cellular BRAF^V600E degradation assay
Type: cell-based
Conditions: for DC50: concentration at which 50% of total cellular BRAF^V600E is degraded; for Emax: read-out: HiBit 24 h Emax
[1] = A375.10 cells, 24 h, residual protein remaining in the cell

BRAF V600E, sequence (P15056 whole entry V600E): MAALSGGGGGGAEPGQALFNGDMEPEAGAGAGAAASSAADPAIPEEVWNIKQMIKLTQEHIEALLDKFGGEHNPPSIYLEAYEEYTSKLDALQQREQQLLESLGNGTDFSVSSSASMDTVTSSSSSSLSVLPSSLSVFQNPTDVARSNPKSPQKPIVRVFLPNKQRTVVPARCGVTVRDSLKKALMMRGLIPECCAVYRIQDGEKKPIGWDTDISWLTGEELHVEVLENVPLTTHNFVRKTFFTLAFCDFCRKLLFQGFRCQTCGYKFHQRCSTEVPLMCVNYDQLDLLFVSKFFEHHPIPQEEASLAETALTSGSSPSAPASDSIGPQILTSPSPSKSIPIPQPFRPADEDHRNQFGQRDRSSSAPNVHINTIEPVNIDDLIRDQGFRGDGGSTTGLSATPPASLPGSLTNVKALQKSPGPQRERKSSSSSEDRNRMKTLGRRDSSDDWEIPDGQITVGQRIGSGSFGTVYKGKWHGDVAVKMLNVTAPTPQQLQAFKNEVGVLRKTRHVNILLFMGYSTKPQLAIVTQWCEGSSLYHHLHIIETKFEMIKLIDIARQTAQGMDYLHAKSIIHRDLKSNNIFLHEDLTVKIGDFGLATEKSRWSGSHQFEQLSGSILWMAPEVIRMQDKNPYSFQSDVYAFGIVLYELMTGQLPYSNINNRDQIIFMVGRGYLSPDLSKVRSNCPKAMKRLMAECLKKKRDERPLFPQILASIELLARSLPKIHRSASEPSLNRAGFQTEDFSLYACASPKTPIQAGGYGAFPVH

SMILES	DC50 (A375.10 cells, 24 h) [nM]	Emax [1] [%]	Emax [%]
CCN(C)S(=O)(=O)Nc1ccc(F)c(Oc2ccc3ncn(C4CC5(CCN(C(=O)CC6(O)CCN(c7ccc(NC8CCC(=O)NC8=O)cc7F)CC6)CC5)C4)c(=O)c3c2)c1C#N (centres unmarked) [Example 23, 6-[2-cyano-3-[[ethyl(methyl)sulfamoyl]amino]-6-fluorophenoxy]-3-[7-[2-[1-[4-[(2,6-dioxopiperidin-3-yl)amino]-2-fluorophenyl]-4-hydroxypiperidin-4-yl]acetyl]-7-azaspiro [3.5]nonan-2-yl]-4-oxoquinazoline]	19.3	21.7	
CCN(C)S(=O)(=O)Nc1ccc(F)c(Oc2ccc3ncn(C4COC5(CCN(C(=O)CN6CCC(c7ccc(NC8CCC(=O)NC8=O)cc7F)CC6)CC5)C4)c(=O)c3c2)c1C#N (centres unmarked) [Example 24, 3-[6-[2-cyano-3-[[ethyl(methyl)sulfamoyl]amino]-6-fluorophenoxy]-4-oxoquinazolin-3-yl]-8-[2-[4-[4-[(2,6-dioxopiperidin-3-yl)amino]-2-fluorophenyl]piperidin-1-yl]acetyl]-1-oxa-8-azaspiro[4.5]decane]	19.5	10.8	
CCN(C)S(=O)(=O)Nc1ccc(F)c(Oc2ccc3ncn(C4C5CN(C(=O)CN6CCC(c7ccc(NC8CCC(=O)NC8=O)cc7F)CC6)CC54)c(=O)c3c2)c1C#N (centres unmarked) [Example 25, 6-[2-cyano-3-[[ethyl(methyl)sulfamoyl]amino]-6-fluorophenoxy]-3-[3-[2-[4-[4-[(2,6-dioxopiperidin-3-yl)amino]-2-fluorophenyl]piperidin-1-yl]acetyl]-3-azabicyclo[3.1.0]hexan-6-yl]-4-oxoquinazoline]	34.8	11.9	
CCN(C)S(=O)(=O)Nc1cccc(Oc2ccc3ncn(C4CC5(CCN(C(=O)CN6CCC(c7ccc(NC8CCC(=O)NC8=O)cc7F)CC6)CC5)C4)c(=O)c3c2)c1C#N (centres unmarked) [Example 26, 6-[2-cyano-3-[[ethyl(methyl)sulfamoyl]amino]phenoxy]-3-[7-[2-[4-[4-[(2,6-dioxopiperidin-3-yl)amino]-2-fluorophenyl]piperidin-1-yl]acetyl]-7-azaspiro[3.5]nonan-2-yl]-4-oxoquinazoline]	8.49	10	
CCN(C)S(=O)(=O)Nc1ccc(F)c(Oc2ccc3ncn(C4COC5(CCN(C(=O)CC6(O)CCN(c7ccc(NC8CCC(=O)NC8=O)cc7F)CC6)CC5)C4)c(=O)c3c2)c1C#N (centres unmarked) [Example 27, 3-[6-[2-cyano-3-[[ethyl(methyl)sulfamoyl]amino]-6-fluorophenoxy]-4-oxoquinazolin-3-yl]-8-[2-[1-[4-[(2,6-dioxopiperidin-3-yl)amino]-2-fluorophenyl]-4-hydroxypiperidin-4-yl]acetyl]-1-oxa-8-azaspiro[4.5]decane]	15	22.2	
CCN(C)S(=O)(=O)Nc1ccc(F)c(Oc2ccc3ncn(C4CCC5(CCN(C(=O)CN6CCC(c7ccc(NC8CCC(=O)NC8=O)cc7F)CC6)CC5)C4)c(=O)c3c2)c1C#N (centres unmarked) [Example 28, 6-[2-cyano-3-[[ethyl(methyl)sulfamoyl]amino]-6-fluorophenoxy]-3-[8-[2-[4-[4-[(2,6-dioxopiperidin-3-yl)amino]-2-fluorophenyl]piperidin-1-yl]acetyl]-8-azaspiro[4.5]decan-3-yl]-4-oxoquinazoline]	22.9	10.2	
CCN(C)S(=O)(=O)Nc1ccc(F)c(Oc2ccc3ncn(C4CC5(CCN(C(=O)NC6CCN(c7ccc(NC8CCC(=O)NC8=O)cc7F)CC6)CC5)C4)c(=O)c3c2)c1C#N (centres unmarked) [Example 37, 2-[6-[2-cyano-3-[[ethyl(methyl)sulfamoyl]amino]-6-fluorophenoxy]-4-oxoquinazolin-3-yl]-N-[1-[4-[(2,6-dioxopiperidin-3-yl)amino]-2-fluorophenyl]piperidin-4-yl]-7-azaspiro[3.5]nonane-7-carboxamide]	48.4		16.2

Further lines, with some results ahead:

DC50 (A375.10 cells, 24 h) [nM]	Emax [1] [%]	SMILES	Emax [%]
33.7	12.1	CCN(C)S(=O)(=O)Nc1ccc(F)c(Oc2ccc3ncn(C4CCOC5(CCN(C(=O)CN6CCC(c7ccc(NC8CCC(=O)NC8=O)cc7F)CC6)CC5)C4)c(=O)c3c2)c1C#N (centres unmarked) [Example 29, 4-[6-[2-cyano-3-[[ethyl(methyl)sulfamoyl]amino]-6-fluorophenoxy]-4-oxoquinazolin-3-yl]-9-[2-[4-[4-[(2,6-dioxopiperidin-3-yl)amino]-2-fluorophenyl]piperidin-1-yl]acetyl]-1-oxa-9-azaspiro[5.5]undecane]	
16.4	12.1	CCN(C)S(=O)(=O)Nc1ccc(F)c(Oc2ccc3ncn(C4CCC5(CC4)CCN(C(=O)CN4CCC(c6ccc(NC7CCC(=O)NC7=O)cc6F)CC4)CC5)c(=O)c3c2)c1C#N (centres unmarked) [Example 30, 9-[6-[2-cyano-3-[[ethyl(methyl)sulfamoyl]amino]-6-fluorophenoxy]-4-oxoquinazolin-3-yl]-3-[2-[4-[4-[(2,6-dioxopiperidin-3-yl)amino]-2-fluorophenyl]piperidin-1-yl]acetyl]-3-azaspiro[5.5]undecane]	
46.9	11.6	CCN(C)S(=O)(=O)Nc1ccc(F)c(Oc2ccc3ncn(CC4CC5(CCN(C(=O)CN6CCC(c7ccc(NC8CCC(=O)NC8=O)cc7F)CC6)CC5)C4)c(=O)c3c2)c1C#N (centres unmarked) [Example 31, 6-[2-cyano-3-[[ethyl(methyl)sulfamoyl]amino]-6-fluorophenoxy]-3-[[7-[2-[4-[4-[(2,6-dioxopiperidin-3-yl)amino]-2-fluorophenyl]piperidin-1-yl]acetyl]-7-azaspiro[3.5]nonan-2-yl]methyl]-4-oxoquinazoline]	
40.3	11.4	CCN(C)S(=O)(=O)Nc1ccc(F)c(Oc2ccc3ncn(C4CCC5(CC4)CCN(C(=O)CN4CCC(c6ccc(NC7CCC(=O)NC7=O)cc6F)CC4)C5)c(=O)c3c2)c1C#N (centres unmarked) [Example 32, 6-[2-cyano-3-[[ethyl(methyl)sulfamoyl]amino]-6-fluorophenoxy]-3-[2-[2-[4-[4-[(2,6-dioxopiperidin-3-yl)amino]-2-fluorophenyl]piperidin-1-yl]acetyl]-2-azaspiro[4.5]decan-8-yl]-4-oxoquinazoline]	
6.82	13.6	CCN(C)S(=O)(=O)Nc1ccc(F)c(Oc2ccc3ncn([C@H]4[C@@H]5CN(c6ccc(C(=O)NC7CCN(c8ccc(NC9CCC(=O)NC9=O)cc8F)CC7)cc6)C[C@@H]54)c(=O)c3c2)c1C#N (some centres unmarked) [Example 35, 4-[6-[6-[2-cyano-3-[[ethyl(methyl)sulfamoyl]amino]-6-fluorophenoxy]-4-oxoquinazolin-3-yl]-3-azabicyclo[3.1.0]hexan-3-yl]-N-[1-[4-[(2,6-dioxopiperidin-3-yl)amino]-2-fluorophenyl]piperidin-4-yl]benzamide]	
51.3	10.3	CCN(C)S(=O)(=O)Nc1ccc(F)c(Oc2ccc3ncn(CC4COC5(CCN(C(=O)CN6CCC(c7ccc(NC8CCC(=O)NC8=O)cc7F)CC6)CC5)C4)c(=O)c3c2)c1C#N (centres unmarked) [Example 36, 3-[[6-[2-cyano-3-[[ethyl(methyl)sulfamoyl]amino]-6-fluorophenoxy]-4-oxoquinazolin-3-yl]methyl]-8-[2-[4-[4-[(2,6-dioxopiperidin-3-yl)amino]-2-fluorophenyl]piperidin-1-yl]acetyl]-1-oxa-8-azaspiro[4.5]decane]	
